ChEMBL document CHEMBL6153028, “Understanding the synergistic sensitization of natural products and antibiotics: An effective strategy to combat MRSA” (2025)

What was measured:
Type in all cases: functional
[1] = test system: Staphylococcus aureus; experiment: Synergistic antimicrobial activity against Staphylococcus aureus DSM 1104 planktonic cells assessed as fractional inhibitory concentration index in presence of oxacillin by checkerboard assay
[2] = test system: Staphylococcus aureus; experiment: Synergistic antimicrobial activity against Staphylococcus aureus DSM 1104 planktonic cells assessed as fractional inhibitory concentration index in presence of gentamicin by checkerboard assay
[3] = test system: Staphylococcus aureus; experiment: Synergistic antimicrobial activity against methicillin-resistant Staphylococcus aureus CCARM 3089 assessed as fractional inhibitory concentration index in presence of ciprofloxacin incubated for 24 hrs by checkerboard assay
[4] = test system: Staphylococcus aureus; experiment: Synergistic antimicrobial activity against methicillin resistant Staphylococcus aureus assessed as fractional inhibitory concentration index incubated for 24 hrs in presence of ciprofloxacin by checkerboard assay
[5] = test system: Staphylococcus aureus; experiment: Synergistic antibacterial activity against methicillin resistant Staphylococcus aureus assessed as fractional inhibitory concentration index in presence of erythromycin by checkerboard assay
[6] = test system: Staphylococcus aureus; experiment: Synergistic antibacterial activity against methicillin resistant Staphylococcus aureus assessed as fractional inhibitory concentration index in presence of streptomycin incubated for 24 hrs by checkerboard assay
[7] = test system: Staphylococcus aureus; experiment: Synergistic antibacterial activity against methicillin resistant Staphylococcus aureus assessed as fractional inhibitory concentration index in presence of oxacillin incubated for 24 hrs by checkerboard assay
[8] = test system: Staphylococcus aureus; experiment: Synergistic antibacterial activity against methicillin resistant Staphylococcus aureus assessed as fractional inhibitory concentration index in presence of ampicillin incubated for 24 hrs by checkerboard assay
[9] = test system: Staphylococcus aureus; experiment: Synergistic antibacterial activity against methicillin resistant Staphylococcus aureus assessed as fractional inhibitory concentration index in presence of penicillin incubated for 24 hrs by checkerboard assay
[10] = test system: Staphylococcus aureus; experiment: Synergistic antimicrobial activity against methicillin-resistant Staphylococcus aureus assessed as fractional inhibitory concentration index in presence of levofloxacin by checkerboard assay
[11] = test system: Staphylococcus aureus; experiment: Synergistic antimicrobial activity against methicillin-resistant Staphylococcus aureus assessed as fractional inhibitory concentration index in presence of vancomycin by checkerboard assay
[12] = test system: Staphylococcus aureus; experiment: Synergistic antimicrobial activity against methicillin-resistant Staphylococcus aureus assessed as fractional inhibitory concentration index in presence of chloramphenicol incubated for 24 hrs by checkerboard assay
[13] = test system: Staphylococcus aureus; experiment: Synergistic antibacterial activity against methicillin resistant Staphylococcus aureus assessed as fractional inhibitory concentration index in presence of penicillin by checkerboard assay
[14] = test system: Staphylococcus aureus; experiment: Synergistic antibacterial activity against methicillin resistant Staphylococcus aureus assessed as fractional inhibitory concentration index in presence of cephradine by checkerboard assay
[15] = test system: Staphylococcus aureus; experiment: Synergistic antibacterial activity against methicillin resistant Staphylococcus aureus assessed as fractional inhibitory concentration index in presence of ampicillin by checkerboard assay
[16] = test system: Staphylococcus aureus; experiment: Synergistic antimicrobial activity against methicillin-resistant Staphylococcus aureus assessed as fractional inhibitory concentration index in presence of minocycline incubated for 24 hrs by checkerboard assay
[17] = test system: Staphylococcus aureus; experiment: Synergistic antimicrobial activity against methicillin-resistant Staphylococcus aureus assessed as fractional inhibitory concentration index in presence of gentamicin incubated for 24 hrs by checkerboard assay
[18] = test system: Staphylococcus aureus; experiment: Synergistic antimicrobial activity against methicillin-resistant Staphylococcus aureus CCARM 3089 assessed as fractional inhibitory concentration index in presence of pencillin incubated for 24 hrs by checkerboard assay
[19] = test system: Staphylococcus aureus; experiment: Synergistic antimicrobial activity against methicillin-resistant Staphylococcus aureus assessed as fractional inhibitory concentration index in presence of ciprofloxacin incubated for 24 hrs by checkerboard assay
[20] = test system: Staphylococcus aureus; experiment: Synergistic antibacterial activity against methicillin resistant Staphylococcus aureus assessed as fractional inhibitory concentration index in presence of minocycline by checkerboard assay
[21] = test system: Staphylococcus aureus; experiment: Synergistic antimicrobial activity against methicillin-resistant Staphylococcus aureus CCARM 3089 assessed as fractional inhibitory concentration index in presence of Ceftiofur incubated for 24 hrs by checkerboard assay

## O=C(/C=C/c1ccc(O)cc1)CC(=O)/C=C/c1ccc(O)cc1 [BISDEMETHOXYCURCUMIN]
[1]
  fractional inhibitory concentration index (FICI): 0.51
[2]
  fractional inhibitory concentration index (FICI): 0.1

## COc1cc(CNC(=O)CCCC/C=C/C(C)C)ccc1O [CAPSAICIN]
[3]
  fractional inhibitory concentration index (FICI): 0.18

## COc1cc(/C=C/C(=O)CC(=O)/C=C/c2ccc(O)c(OC)c2)ccc1O [CURCUMIN]
[4]
  fractional inhibitory concentration index (FICI): 0.25

## COc1ccc(-c2cc(=O)c3c(O)cc(O)cc3o2)cc1O [DIOSMETIN]
[5]
  fractional inhibitory concentration index (FICI): 0.28

## CC(C)=CCc1cc([C@@H]2CC(=O)c3ccc(O)c(CC=C(C)C)c3O2)ccc1O [GLABROL]
[6]
  fractional inhibitory concentration index (FICI): 0.188

## O=C(/C=C/c1ccc(O)cc1)c1ccc(O)cc1O [ISOLIQUIRITIGENIN]
[7]
  fractional inhibitory concentration index (FICI): 0.312
[8]
  fractional inhibitory concentration index (FICI): 0.375
[9]
  fractional inhibitory concentration index (FICI): 0.375

## COc1c2ccoc2c(OC)c2oc(=O)ccc12 [ISOPIMPINELLIN]
[10]
  fractional inhibitory concentration index (FICI): <0.5
[11]
  fractional inhibitory concentration index (FICI): <0.5
[12]
  fractional inhibitory concentration index (FICI): <0.5

## O=C1C[C@@H](c2ccc(O)cc2)Oc2cc(O)ccc21 [LIQUIRTIGENIN]
[7]
  fractional inhibitory concentration index (FICI): 0.372
[8]
  fractional inhibitory concentration index (FICI): 0.375
[13]
  fractional inhibitory concentration index (FICI): 0.375

## O=c1cc(-c2ccc(O)c(O)c2)oc2cc(O)cc(O)c12 [LUTEOLIN]
[14]
  fractional inhibitory concentration index (FICI): 0.44
[15]
  fractional inhibitory concentration index (FICI): 0.125

## COc1c2ccoc2c(OCC=C(C)C)c2oc(=O)ccc12 [PHELLOPTERIN]
[16]
  fractional inhibitory concentration index (FICI): 0.5
[17]
  fractional inhibitory concentration index (FICI): <0.5

## Oc1cc(O)cc(Oc2c(O)cc(O)c3c2Oc2c(O)cc4oc5c(Oc6cc(O)cc(O)c6)c(O)cc(O)c5c4c2O3)c1 [PHLOROFUCOFUROECKOL A]
[18]
  fractional inhibitory concentration index (FICI): 0.393

## Oc1cc(O)cc(/C=C/c2ccc(O)c(O)c2)c1 [PICEATANNOL]
[19]
  fractional inhibitory concentration index (FICI): 0.375

## O=c1c(O)c(-c2ccc(O)c(O)c2)oc2cc(O)cc(O)c12 [QUERCETIN]
[20]
  fractional inhibitory concentration index (FICI): <=0.5

## O=c1c(O)cc([C@H]2Oc3cc(O)cc(O)c3C[C@H]2O)cc2c([C@H]3Oc4cc(O)cc(O)c4C[C@H]3O)cc(O)c(O)c12 [THEAFLAVIN]
[21]
  fractional inhibitory concentration index (FICI): 0.187
